From ChEMBL document CHEMBL4334512, “Rationally Designed, Conformationally Constrained Inverse Agonists of RORγt-Identification of a Potent, Selective Series with Biologic-Like in Vivo Efficacy” (J Med Chem, 2019)

Tests used:
[1] = target: T1, Nuclear receptor ROR-gamma (Homo sapiens, UniProt P51449); assay: Inverse agonist activity at full length human RORgammat expressed in human Jurkat cells assessed as inhibition of constitutive receptor activity incubated for 18 hrs by Gal4-Luc reporter gene assay; type: cell-based
T1 sequence (P51449 whole entry): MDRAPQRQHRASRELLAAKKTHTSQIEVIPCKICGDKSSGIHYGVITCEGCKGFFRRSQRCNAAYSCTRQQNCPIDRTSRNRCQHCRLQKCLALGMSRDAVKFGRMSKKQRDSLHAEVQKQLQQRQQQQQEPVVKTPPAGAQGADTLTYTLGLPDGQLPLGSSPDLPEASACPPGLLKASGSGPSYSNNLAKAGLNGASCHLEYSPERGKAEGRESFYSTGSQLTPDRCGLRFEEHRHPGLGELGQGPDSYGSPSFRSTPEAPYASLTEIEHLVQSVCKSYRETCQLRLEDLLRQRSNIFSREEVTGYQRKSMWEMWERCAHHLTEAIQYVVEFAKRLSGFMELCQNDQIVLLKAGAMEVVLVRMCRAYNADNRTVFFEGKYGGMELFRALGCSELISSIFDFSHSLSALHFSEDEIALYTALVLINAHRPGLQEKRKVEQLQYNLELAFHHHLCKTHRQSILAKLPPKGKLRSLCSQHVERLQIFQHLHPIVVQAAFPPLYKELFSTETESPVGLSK

[2] = target: T2, Oxysterols receptor LXR-alpha (Homo sapiens, UniProt Q13133); assay: Activity at LXRalpha (unknown origin)
T2 sequence (Q13133 whole entry): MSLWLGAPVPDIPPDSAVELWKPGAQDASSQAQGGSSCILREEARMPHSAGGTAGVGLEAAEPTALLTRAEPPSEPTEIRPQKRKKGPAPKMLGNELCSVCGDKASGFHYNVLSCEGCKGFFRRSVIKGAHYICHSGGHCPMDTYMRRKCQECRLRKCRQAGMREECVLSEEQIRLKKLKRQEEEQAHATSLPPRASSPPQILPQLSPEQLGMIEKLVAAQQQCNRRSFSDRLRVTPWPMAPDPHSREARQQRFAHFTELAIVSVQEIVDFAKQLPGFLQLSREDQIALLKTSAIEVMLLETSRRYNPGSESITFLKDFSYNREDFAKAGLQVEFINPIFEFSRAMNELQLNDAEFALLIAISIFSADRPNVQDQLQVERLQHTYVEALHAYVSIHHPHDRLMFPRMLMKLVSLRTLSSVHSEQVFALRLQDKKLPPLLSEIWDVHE

[3] = target: T3, Oxysterols receptor LXR-beta (Homo sapiens, UniProt P55055); assay: Activity at LXRbeta (unknown origin)
T3 sequence (P55055 whole entry): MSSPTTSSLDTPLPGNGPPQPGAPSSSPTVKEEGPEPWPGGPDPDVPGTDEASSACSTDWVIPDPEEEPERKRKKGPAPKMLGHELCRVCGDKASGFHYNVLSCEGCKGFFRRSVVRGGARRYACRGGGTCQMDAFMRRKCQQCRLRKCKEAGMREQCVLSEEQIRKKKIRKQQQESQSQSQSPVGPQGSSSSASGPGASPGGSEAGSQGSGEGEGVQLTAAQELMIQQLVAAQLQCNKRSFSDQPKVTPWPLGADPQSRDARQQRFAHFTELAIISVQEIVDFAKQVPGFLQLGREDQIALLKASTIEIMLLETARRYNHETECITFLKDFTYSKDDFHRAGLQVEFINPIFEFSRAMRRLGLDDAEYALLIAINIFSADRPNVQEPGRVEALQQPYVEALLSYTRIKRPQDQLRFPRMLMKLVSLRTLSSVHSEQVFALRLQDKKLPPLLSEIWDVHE

[4] = Half life in mouse liver microsomes; type: ADME, Microsome
[5] = target: T4, Nuclear receptor ROR-alpha (Homo sapiens, UniProt P35398); assay: Activity at RORalpha (unknown origin)
T4 sequence (P35398 whole entry): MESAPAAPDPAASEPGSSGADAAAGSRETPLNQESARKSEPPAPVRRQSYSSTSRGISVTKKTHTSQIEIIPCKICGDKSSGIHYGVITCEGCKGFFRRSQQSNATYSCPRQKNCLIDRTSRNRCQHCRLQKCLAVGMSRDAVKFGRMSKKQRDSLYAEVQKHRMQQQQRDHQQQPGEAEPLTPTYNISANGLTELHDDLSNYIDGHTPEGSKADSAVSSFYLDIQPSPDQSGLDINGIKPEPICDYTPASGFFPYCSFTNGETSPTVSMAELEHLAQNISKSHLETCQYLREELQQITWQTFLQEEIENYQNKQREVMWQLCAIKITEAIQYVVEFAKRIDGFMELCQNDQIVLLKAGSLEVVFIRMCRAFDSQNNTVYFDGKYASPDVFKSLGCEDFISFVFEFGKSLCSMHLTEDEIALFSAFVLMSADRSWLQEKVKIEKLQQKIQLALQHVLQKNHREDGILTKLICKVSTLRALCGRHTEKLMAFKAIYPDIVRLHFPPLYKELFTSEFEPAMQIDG

[6] = target: T1, Nuclear receptor ROR-gamma; assay: Inverse agonist activity at RORgammat in CD3 and CD28-stimulated human whole blood assessed as reduction in IL17A production incubated for 1 hr before CD3 and CD28 stimulation for 20 hrs by AlphaLISA method; type: tissue-based
[7] = target: T5, Nuclear receptor subfamily 1 group I member 2 (Homo sapiens, UniProt O75469); assay: Activity at PXR (unknown origin)
T5 sequence (O75469 whole entry): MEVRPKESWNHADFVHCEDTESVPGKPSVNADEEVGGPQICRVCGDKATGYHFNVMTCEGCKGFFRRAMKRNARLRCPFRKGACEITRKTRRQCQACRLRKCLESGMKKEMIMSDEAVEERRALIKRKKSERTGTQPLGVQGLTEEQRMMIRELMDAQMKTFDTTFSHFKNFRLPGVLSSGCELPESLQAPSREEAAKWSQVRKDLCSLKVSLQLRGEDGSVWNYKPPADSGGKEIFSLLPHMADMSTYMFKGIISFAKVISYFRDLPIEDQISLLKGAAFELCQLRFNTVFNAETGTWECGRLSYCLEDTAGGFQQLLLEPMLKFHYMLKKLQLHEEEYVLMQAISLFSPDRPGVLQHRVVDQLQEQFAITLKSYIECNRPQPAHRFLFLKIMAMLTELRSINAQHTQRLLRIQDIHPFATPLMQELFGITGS

[8] = Half life in human liver microsomes; type: ADME, Microsome
[9] = Half life in rat liver microsomes; type: ADME, Microsome
[10] = target: T6, Nuclear receptor ROR-beta (Homo sapiens, UniProt Q92753); assay: Activity at RORbeta (unknown origin)
T6 sequence (Q92753 whole entry): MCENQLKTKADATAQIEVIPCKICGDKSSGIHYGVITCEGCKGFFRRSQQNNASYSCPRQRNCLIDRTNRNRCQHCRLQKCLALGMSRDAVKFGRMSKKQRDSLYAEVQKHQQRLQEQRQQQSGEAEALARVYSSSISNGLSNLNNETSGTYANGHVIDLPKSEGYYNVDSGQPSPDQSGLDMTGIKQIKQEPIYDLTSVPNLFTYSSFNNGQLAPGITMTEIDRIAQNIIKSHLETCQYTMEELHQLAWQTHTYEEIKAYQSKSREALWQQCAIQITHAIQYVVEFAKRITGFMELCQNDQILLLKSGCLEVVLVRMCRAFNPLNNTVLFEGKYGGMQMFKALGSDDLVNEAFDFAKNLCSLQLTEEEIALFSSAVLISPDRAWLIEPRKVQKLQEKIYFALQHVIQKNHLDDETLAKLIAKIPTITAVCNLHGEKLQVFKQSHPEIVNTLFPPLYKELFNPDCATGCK

[11] = Drug level in Balb/c mouse at 10 mg/kg, po after 24 hrs; type: ADME, organism-based; settings: in vivo, read-out: Drug uptake
[12] = Cmax in Balb/c mouse at 10 mg/kg, po; type: ADME, organism-based; design: dose 10 mg/kg, route oral; settings: in vivo
[13] = Unbound fraction in human serum; type: ADME, cell-free

| Structure (SMILES) | EC50 [1] [µM] | IC50 [2] [µM] | IC50 [3] [µM] | half-life [4] [h] | IC50 [5] [µM] | EC50 [6] [µM] | IC50 [7] [µM] | half-life [8] [h] | half-life [9] [h] | IC50 [10] [µM] | concentration at 24 h [11] [µM] | Cmax [12] [µM] | fraction unbound [13] |
| --- | --- | --- | --- | --- | --- | --- | --- | --- | --- | --- | --- | --- | --- |
| O=C(O)[C@H]1CC[C@](F)(C(=O)N2CC[C@@]3(S(=O)(=O)c4ccc(F)cc4)c4ccc(C(F)(C(F)(F)F)C(F)(F)F)cc4CC[C@@H]23)CC1 | 0.015 | > 10 | > 10 | > 2 | > 10 | 0.046 | > 40 | > 2 | > 2 | > 10 | – | – | – |
| O=C(O)C12CCC(C(=O)N3CC[C@@]4(S(=O)(=O)c5ccc(F)cc5)c5ccc(C(F)(C(F)(F)F)C(F)(F)F)cc5CC[C@@H]34)(CC1)CC2 | – | > 10 | > 10 | > 2 | > 10 | – | > 40 | > 2 | > 2 | > 10 | 1 | 9.3 | – |
| O=C(O)[C@H]1CC[C@H](C(=O)N2CC[C@@]3(S(=O)(=O)c4ccc(F)cc4)c4ccc(C(F)(C(F)(F)F)C(F)(F)F)cc4CC[C@@H]23)CC1 | – | > 10 | > 10 | > 2 | > 10 | – | > 40 | > 2 | > 2 | > 10 | 1.6 | 8.6 | – |
| CCN1C[C@H]2N(C(=O)[C@H]3CC[C@H](C(=O)O)CC3)CC[C@@]2(S(=O)(=O)c2ccc(F)cc2)c2ccc(C(F)(C(F)(F)F)C(F)(F)F)cc21 | – | > 10 | > 10 | > 2 | > 10 | – | > 40 | > 2 | > 2 | > 10 | 3 | 13 | 0.005 |
| CN1C[C@H]2N(C(=O)C3(O)CCS(=O)(=O)CC3)CC[C@@]2(S(=O)(=O)c2ccc(F)cc2)c2ccc(C(F)(C(F)(F)F)C(F)(F)F)cc21 | 0.02 | > 10 | > 10 | 0.433 | > 10 | 0.083 | > 40 | > 2 | 1.4 | > 10 | – | – | 0.003 |
| CN1C[C@H]2N(C(=O)[C@H]3CC[C@H](C(=O)O)CC3)CC[C@@]2(S(=O)(=O)c2ccc(F)cc2)c2ccc(C(F)(C(F)(F)F)C(F)(F)F)cc21 | – | > 10 | > 10 | > 2 | > 10 | – | > 40 | > 2 | > 2 | > 10 | 0.71 | 10 | 0.024 |
| O=C(O)[C@H]1CC[C@H](C(=O)N2CC[C@@]3(S(=O)(=O)c4ccccc4)c4ccc(C(F)(C(F)(F)F)C(F)(F)F)cc4CC[C@@H]23)CC1 | – | > 10 | > 10 | > 2 | > 10 | – | > 40 | > 2 | > 2 | > 10 | 0.74 | 6.9 | – |
